Patent US20080108645A1, “Dihydrotetrabenazines And Pharmaceutical Compositions Containing Them” (CAMBRIDGE LABORATORIES, (IRELAND), LTD., priority 2004, published 2008)

Legend:
[1] = test system: Catechol O-Methyl Transferase (COMT); experiment: Catechol O-Methyl Transferase (COMT) inhibition; format: biochemical, Porcine; conditions: for Percentage Inhibition of Enzyme Activity, COMT: 10 μM
Protocol: Isomers B and C were tested for their ability to inhibit enzymes involved in the processing of monoamines in the CNS, namely Catechol O-Methyl Transferase (COMT), Monoamine Oxidase A and Monoamine Oxidase B. The assay methods used are described below and the results are set out in Table 7.
(a) Catechol O-Methyl Transferase (COMT) Inhibition • Source: Porcine liver • Substrate: 3 mM catechol+S-adenosyl-L-[^3H]methionine • Vehicle: 1% DMSO • Pre-incubation time/Temp: None • Incubation time: 60 minutes @ 37° C. • Incubation buffer: 100 mM potassium phosphate, 10 mM MgCl2, 3 mM DTT containing 12 units/ml adenosine deaminase, pH 7.4 • Quantitation method: Quantitation of [^3H] guiacol. • Significance criteria: ≧50% of maximum stimulation or inhibition (b) Monoamine Oxidase MAO-A Inhibition • Source: Human recombinant • Substrate: 50 μM kynuramine • Vehicle: 1% DMSO • Pre-incubation time/Temp: 15 minutes @ 37° C. • Incubation time: 60 minutes @ 37° C. • Incubation buffer: 100 mM KH2PO4, pH 7.4 • Quantitation method: Spectrofluorimetric quantitation of 4-hydroxyquinoline • Significance criteria: ≧50% of maximum stimulation or inhibition (c) Monoamine Oxidase MAO-B Inhibition • Source: Human recombinant • Substrate: 50 μM kynuramine • Vehicle: 1% DMSO • Pre-incubation time/Temp: 15 minutes @ 37° C. • Incubation time: 60 minutes @ 37° C. • Incubation buffer: 100 mM KH2PO4, pH 7.4 • Quantitation method: Spectrofluorimetric quantitation of 4-hydroxyquinoline • Significance criteria: ≧50% of maximum stimulation or inhibition

Caco-2 monolayer = conditions: Caco-2
Source text: (§2) The assay relies on the ability of Caco-2 cells to differentiate into enterocytes when cultured on a microporous filter for a period of approximately 21 days. During the culture period, the Caco-2 cells undergo spontaneous morphological and biochemical changes, which produce a polarized monolayer with a well-defined brush border on the apical surface, as well as tight cellular junctions. Therefore, these cells may be used as an in vitro model for the analysis of drug permeability.
(§3) Absorption across the Caco-2 monolayer can be measured in two directions: apical-to-basolateral or basolateral-to-apical, by adding the compound to the apical or the basolateral chamber, respectively. At various time-points, samples are collected from the receiver-chamber for analysis for the rate of absorption as measured by the apparent permeability coefficient (Papp) across the monolayer.
(§4) The Papp value reflects a combination of the test article permeability through both transcellular (through cell membranes) and the paracellular (across the tight junctions between the cells) pathways. The relative contribution of these pathways depends upon the pKa, partition coefficient (log D), molecular radius, and charge of the test article at a given pH. Papp values can then be used to rank-order compounds for their permeability through Caco-2 monolayers.
(§5) Absorption was determined at pH 7.4 across cell monolayers in the apical-to-basolateral direction. Caco-2 cells used to estimate Papp values were grown for 26 days on Transwell inserts in 12-well plates. Monolayer integrity was verified before and after the absorption assay by the methods of transepithelial electrical resistance (Ohm-cm^2) and Lucifer Yellow.
(§6) On the day of the assay, the reference standards were diluted in Hank's balanced salt solution (HBSS), pH 7.4 to a final concentration of 50 μM. […] Dihydrotetrabenazine isomer samples were prepared at a concentration of 50 mM in DMSO. Each stock solution was further diluted in HBSS buffer (pH 7.4) to a final working concentration of 50 μM
(§7) The Caco-2 cell suspensions were prepared as follows. […] Once the cell density and viability were determined, Caco-2 cells were diluted in culture medium to a final working concentration of 2.0×10^5 cells/ml. The Caco-2 culture medium contained Dulbecco's Modified Eagle Medium, 10% fetal bovine serum, 100 μM non-essential amino acids, 100 U/ml penicillin and 100 μg/ml streptomycin.
(§8) Costar polycarbonate membranes (0.4 μm pore size) were pre-equilibrated with Caco-2 culture medium for 1 hour in a 37° C. water-jacketed incubator with 5% CO2. The content of the apical chamber was removed and replaced with 500 μl of Caco-2 cell suspension (200 000 cells/ml). Cells were further maintained in culture for 26 days in a 37° C. water-jacketed incubator with 5% CO2.
(§9) Prior to the assay, all monolayers were washed twice with HBSS and their transepithelial electrical resistance (TEER) was measured with a Millicell-ERS meter. TEER values obtained in the absence of cells were subtracted as background signal. Only monolayer with TEER values over 150 Ohm-cm^2 were used for the absorption assay experiment.
(§10) All absorption experiments were conducted in triplicate at pH 7.4. The rate of absorption of each reference standard and dihydrotetrabenazine test article was assessed in the apical-to-basolateral direction. Aliquots (100 μl) of each working solution (reference standards and test articles at 50 μM) were set aside at the beginning of the assay for the determination of the initial concentration (Co).
(§11) Absorption experiments were initiated by replacing the content of the donor chamber with 500 μl of Hanks Balanced Salt Solution containing test articles or reference compounds. Cells were returned to the CO2 incubator for the absorption assay. Samples of 100 μl were collected from the receiver and donor chambers after 1 hour and were used to determine the percentage of recovery.

[2] = biological target: T1, Serotonin Transporter (SERT) (Homo sapiens, UniProt P31645); experiment: Serotonin transporter (SERT) radioligand binding; conditions: for IC50 / Percentage Inhibition of Specific Binding, SERT: 0.15 nM [125I] RTI-55; for IC50: read-out: IC50 value (in parentheses), SERT; for Percentage Inhibition of Specific Binding, SERT: 10 μM
T1 construct: expressed in transfected cells; host or cells: HEK-293 cells
T1 sequence (P31645 whole entry): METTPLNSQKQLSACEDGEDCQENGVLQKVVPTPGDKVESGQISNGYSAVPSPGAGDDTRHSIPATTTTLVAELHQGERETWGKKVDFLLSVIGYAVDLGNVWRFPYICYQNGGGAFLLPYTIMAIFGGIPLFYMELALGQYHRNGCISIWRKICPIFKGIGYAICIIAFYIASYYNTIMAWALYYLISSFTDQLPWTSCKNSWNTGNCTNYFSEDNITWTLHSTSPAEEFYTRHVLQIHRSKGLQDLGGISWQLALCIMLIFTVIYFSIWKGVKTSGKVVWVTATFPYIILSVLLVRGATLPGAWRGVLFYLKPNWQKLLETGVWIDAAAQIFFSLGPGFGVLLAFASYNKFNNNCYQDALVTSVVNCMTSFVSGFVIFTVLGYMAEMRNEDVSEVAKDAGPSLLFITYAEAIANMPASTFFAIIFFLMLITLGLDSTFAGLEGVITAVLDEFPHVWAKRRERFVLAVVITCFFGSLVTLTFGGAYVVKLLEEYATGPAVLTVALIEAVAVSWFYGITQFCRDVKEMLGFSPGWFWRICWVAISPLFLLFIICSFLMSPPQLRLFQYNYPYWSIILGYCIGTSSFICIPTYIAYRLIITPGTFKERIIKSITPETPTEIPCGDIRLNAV
Protocol: (§1) (a) Adrenergic α2A Receptor: • Reference: S. Uhlen et al. J. Pharmacol. Exp. Ther., 271:1558-1565 (1994) • Source: Human recombinant insect Sf9 cells • Ligand: 1 nM [^3H] […] J. Pharmacol., 99:803-809, (1990) • Source: Wistar rat cerebral cortex • Ligand: 2 nM [3H]

in vitro = conditions: human, Caco-2, pH 7.4
Source text: as §2, §3, §4, §5, §6, §7, §8, §9, §10, §11

Adrenergic α2A Receptor = biological target: T2, Adrenergic α2A Receptor (Homo sapiens, UniProt P08913); experiment: Adrenergic α2A receptor radioligand binding; conditions: 10 μM; 1 nM [3H] MK-912
T2 construct: expressed in transfected cells; host or cells: insect Sf9 cells
T2 sequence (P08913 1-465): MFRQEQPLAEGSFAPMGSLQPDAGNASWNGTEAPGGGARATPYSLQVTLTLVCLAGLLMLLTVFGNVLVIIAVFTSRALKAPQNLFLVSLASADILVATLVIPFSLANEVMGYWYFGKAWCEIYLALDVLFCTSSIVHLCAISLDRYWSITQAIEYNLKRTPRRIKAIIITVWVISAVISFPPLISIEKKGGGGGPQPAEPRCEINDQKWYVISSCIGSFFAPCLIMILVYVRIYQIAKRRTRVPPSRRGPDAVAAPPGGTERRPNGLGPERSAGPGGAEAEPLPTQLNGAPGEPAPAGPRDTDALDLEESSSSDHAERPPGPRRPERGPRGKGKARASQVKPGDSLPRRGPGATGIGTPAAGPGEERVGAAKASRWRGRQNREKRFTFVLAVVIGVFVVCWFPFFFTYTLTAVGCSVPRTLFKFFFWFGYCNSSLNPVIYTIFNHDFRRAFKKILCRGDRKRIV
Protocol: as §1

Dopamine D2L Receptor = biological target: T3, Dopamine D2L Receptor (Homo sapiens, UniProt P14416); experiment: Dopamine D2L receptor radioligand binding; conditions: 10 μM; 0.16 nM [3H] Spiperone
T3 construct: expressed in transfected cells; host or cells: CHO cells
T3 sequence (P14416 whole entry): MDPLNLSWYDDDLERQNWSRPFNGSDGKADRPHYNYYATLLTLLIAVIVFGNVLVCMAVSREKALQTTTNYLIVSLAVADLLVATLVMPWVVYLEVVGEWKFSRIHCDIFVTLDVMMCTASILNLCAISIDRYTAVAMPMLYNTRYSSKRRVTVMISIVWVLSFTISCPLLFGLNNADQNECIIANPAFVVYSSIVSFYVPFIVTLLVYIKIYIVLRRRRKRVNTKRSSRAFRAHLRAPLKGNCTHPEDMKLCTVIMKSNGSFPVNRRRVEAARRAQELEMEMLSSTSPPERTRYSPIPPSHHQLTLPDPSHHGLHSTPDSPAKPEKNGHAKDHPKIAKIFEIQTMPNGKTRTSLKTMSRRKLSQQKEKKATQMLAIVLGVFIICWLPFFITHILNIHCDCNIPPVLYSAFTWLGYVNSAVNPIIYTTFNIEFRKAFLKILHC
Protocol: as §1

Adrenergic α2B Receptor = biological target: T4, Adrenergic α2B Receptor (Homo sapiens, UniProt P18089); experiment: Adrenergic α2B receptor radioligand binding; conditions: 10 μM; 2.5 nM [3H] Rauwolscine
T4 construct: expressed in transfected cells; host or cells: CHO-K1 cells
T4 sequence (P18089 1-450): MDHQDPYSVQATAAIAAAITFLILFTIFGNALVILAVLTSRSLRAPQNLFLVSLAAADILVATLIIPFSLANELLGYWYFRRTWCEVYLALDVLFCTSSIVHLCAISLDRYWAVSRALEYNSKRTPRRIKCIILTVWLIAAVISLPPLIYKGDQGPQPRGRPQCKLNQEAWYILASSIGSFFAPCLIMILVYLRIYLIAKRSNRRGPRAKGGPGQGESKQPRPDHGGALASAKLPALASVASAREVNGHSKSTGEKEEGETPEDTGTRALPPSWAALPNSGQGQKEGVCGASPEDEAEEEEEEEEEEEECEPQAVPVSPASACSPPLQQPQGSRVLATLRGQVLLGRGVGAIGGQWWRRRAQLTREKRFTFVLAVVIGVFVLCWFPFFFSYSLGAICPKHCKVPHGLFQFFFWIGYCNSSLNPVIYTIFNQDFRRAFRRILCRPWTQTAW
Protocol: as §1

Sigma σ1 Receptor = biological target: T5, Sigma σ1 Receptor (Homo sapiens, UniProt Q99720); experiment: Sigma σ1 receptor radioligand binding; conditions: 10 μM; 8 nM [3H] Haloperidol
T5 construct: Source: Human jurkat cells; endogenous in cells; host or cells: Jurkat cells
T5 sequence (Q99720 whole entry): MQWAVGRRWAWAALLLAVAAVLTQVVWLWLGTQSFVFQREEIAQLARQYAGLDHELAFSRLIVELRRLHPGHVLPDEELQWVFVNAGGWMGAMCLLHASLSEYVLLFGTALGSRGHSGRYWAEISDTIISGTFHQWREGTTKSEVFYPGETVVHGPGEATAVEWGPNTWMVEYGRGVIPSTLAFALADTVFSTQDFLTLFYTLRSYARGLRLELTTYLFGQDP
Protocol: as §1

[3] = test system: Imidazoline I2 (Central) Receptor; experiment: Imidazoline I2 (central) receptor radioligand binding; parameters: species or system Wistar rat; conditions: 10 μM; 2 nM [3H] Idazoxan
Protocol: as §1

[4] = biological target: T6, Dopamine Transporter (DAT) (Homo sapiens, UniProt Q01959); experiment: Dopamine transporter (DAT) radioligand binding; conditions: for Percentage Inhibition of Specific Binding, DAT: 10 μM, 0.15 nM [125I] RTI-55
T6 construct: expressed in transfected cells; host or cells: CHO cells
T6 sequence (Q01959 whole entry): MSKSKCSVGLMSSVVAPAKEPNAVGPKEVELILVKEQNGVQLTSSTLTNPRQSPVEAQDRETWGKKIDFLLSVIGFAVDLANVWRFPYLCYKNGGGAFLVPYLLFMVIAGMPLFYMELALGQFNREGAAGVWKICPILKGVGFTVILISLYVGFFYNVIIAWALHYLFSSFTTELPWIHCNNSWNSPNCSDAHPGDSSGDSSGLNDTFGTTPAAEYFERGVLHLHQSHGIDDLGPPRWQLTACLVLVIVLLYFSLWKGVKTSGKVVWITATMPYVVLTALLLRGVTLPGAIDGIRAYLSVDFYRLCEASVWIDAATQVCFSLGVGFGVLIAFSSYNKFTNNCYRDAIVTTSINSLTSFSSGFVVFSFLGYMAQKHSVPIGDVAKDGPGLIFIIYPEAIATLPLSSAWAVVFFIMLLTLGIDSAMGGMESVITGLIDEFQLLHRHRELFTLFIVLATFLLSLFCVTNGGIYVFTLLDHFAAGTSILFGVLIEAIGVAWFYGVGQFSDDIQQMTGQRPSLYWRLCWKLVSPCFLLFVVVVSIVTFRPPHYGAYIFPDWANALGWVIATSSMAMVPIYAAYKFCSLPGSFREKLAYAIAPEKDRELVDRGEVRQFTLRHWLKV
Protocol: as §1

| SMILES | inhibitory activity against COMT (in words) [1] | Percentage Inhibition of Enzyme Activity, COMT [1] | permeability in the Caco-2 model (in words) (Caco-2 monolayer) | inhibition of SERT (in words) [2] | IC50 [2] | Percentage Inhibition of Specific Binding, SERT [2] | recovery at 1 h, 50 μM (in vitro) | Percentage Inhibition of Specific Binding, α2A Receptor (Adrenergic α2A Receptor) | Percentage Inhibition of Specific Binding, D2L Receptor (Dopamine D2L Receptor) | Percentage Inhibition of Specific Binding, α2B Receptor (Adrenergic α2B Receptor) | Percentage Inhibition of Specific Binding, σ1 Receptor (Sigma σ1 Receptor) | Percentage Inhibition of Specific Binding, I2 Receptor [3] | DAT binding activity (in words) [4] | Percentage Inhibition of Specific Binding, DAT [4] | Papp A→B at 1 h, 50 μM (in vitro) |
| --- | --- | --- | --- | --- | --- | --- | --- | --- | --- | --- | --- | --- | --- | --- | --- |
| COc1cc2c(cc1OC)[C@H]1C[C@H](O)[C@@H](CC(C)C)CN1CC2 (single isomer, unassigned) [Isomer B, 3,11b-cis-dihydrotetrabenazine] | no inhibitory activity | −12% | medium permeability | potent inhibitors | 350 nM | 86% | 90.1 ± 6.5% | 12% | 16% | 14% | 82% | 8% | lack Dopamine Transporter (DAT) binding activity | 4% |  |
| COc1cc2c(cc1OC)[C@H]1C[C@@H](O)[C@@H](CC(C)C)CN1CC2 (single isomer, unassigned) [Isomer C, 3,11b-cis-dihydrotetrabenazine] | no inhibitory activity | −22% | high permeability | potent inhibitors | 2750 nM | 77% | 102 ± 12.4% | 13% | −14% | −7% | 59% | 0% | lack Dopamine Transporter (DAT) binding activity | −2% | 21.1 ×10⁻⁶ cm/s |
